Test system: summer wheat (TRZAS; cv. Triso)
Test: Greenhouse post-emergence trial: reduction in herbicide damage to summer wheat by safener
Assay type: in vivo
Design: key to Reduction in damage by safener (difference): difference in visual damage, % points (0-100% scale vs untreated)
Conditions: 21 days after application
Experimental: Effect of selective herbicide/safener combinations of the invention using the example of reduction in damage to summer wheat (TRZAS):
The seeds of the crop plants to be treated were laid out in soil in plastic pots (diameter ˜8 cm), covered with soil and grown in a greenhouse under good conditions for germination and growth. The trial plants were treated at the early leaf stage (BBCH12).
For this purpose, the herbicides and safeners used were formulated as wettable powders (WP), mixed in accordance with the dose specified in each case, and sprayed onto the above-ground parts of the plants as an aqueous suspension at a water application rate corresponding to 300 l/ha with addition of wetting agent (Mero, 1.5 l/ha).
The dose of the respective herbicides was chosen here such that it causes visually apparent damage (min. 30%, max. 70%) compared to untreated crop plants at the evaluation time on a control group of crop plants without safener treatment that were included in the same trial. After application, the plants were cultivated under good growth conditions in a greenhouse. 21 days after application, the herbicide damage was assessed visually. The damage was assessed visually on a scale of 0-100% by comparison with untreated control plants, and averaged over 2 repeats per treatment.
0%=no noticeable effect compared to the untreated plant 20%=the treated plant population has 20% damage compared to the untreated control population (e.g. growth height, leaf damage, etc.)
100%=treated plants completely damaged/killed.
The safeners were each used at an application rate of 80 g/ha.

[1] = herbicide B19 100 g a.i./ha + safener 80 g/ha
[2] = herbicide B110 50 g a.i./ha + safener 80 g/ha
[3] = herbicide B122 50 g a.i./ha + safener 80 g/ha
[4] = herbicide B123 50 g a.i./ha + safener 80 g/ha

Row | Structure (SMILES) | Damage to the plant on application of herbicide + safener [1] | Reduction in damage by safener (difference) [1] | Reduction in damage by safener (in %) [1] | Damage to the plant on application of herbicide + safener [2] | Reduction in damage by safener (difference) [2] | Reduction in damage by safener (in %) [2] | Damage to the plant on application of herbicide + safener [3] | Reduction in damage by safener (difference) [3] | Reduction in damage by safener (in %) [3] | Damage to the plant on application of herbicide + safener [4] | Reduction in damage by safener (difference) [4] | Reduction in damage by safener (in %) [4]
1 | COC(=O)COc1nc(-c2ccc(Cl)cc2F)n(-c2ccc(Cl)cc2F)n1 [Compound A1, methyl {[1,5-bis(4-chloro-2-fluorophenyl)-1H-1,2,4-triazol-3-yl]oxy}acetate] | 0% | 30 | 100% | 0% | 70 | 100% | 0% | 55 | 100% | 10% | 60 | 86%
2 | COC(=O)COc1nc(-c2ccc(F)cc2F)n(-c2ccc(Cl)cc2F)n1 [Compound A5, methyl {[1-(4-chloro-2-fluorophenyl)-5-(2,4-difluorophenyl)-1H-1,2,4-triazol-3-yl]oxy}acetate] | 0% | 30 | 100% | 0% | 70 | 100% | 0% | 55 | 100% | 25% | 45 | 64%
